Results taken from the NIST ThermoML archive (doi:10.1021/acs.jced.9b00147).
Several values for one entry are separate records, joined by “and”; a condition that tells them apart may be missing. Equal entries are not always repeated. Numbers after ± are expanded uncertainties.

Experiments:
[1] = 101.3 kPa, Liquid; for speed of sound: Single path-length method; for mass density: Vibrating tube method
[2] = xn = mol fraction of the nth substance listed; conditions: 101.3 kPa, Liquid, x2 = 0; for speed of sound: Single path-length method; for mass density: Vibrating tube method

Row | Structure (SMILES) | speed of sound ([1]; 293.15 K) | mass density ([1]; 293.15 K) | speed of sound ([1]; 303.15 K) | mass density ([1]; 303.15 K) | speed of sound ([1]; 313.15 K) | mass density ([1]; 313.15 K) | speed of sound ([1]; 323.15 K) | mass density ([1]; 323.15 K) | speed of sound ([2]; 293.15 K) | mass density ([2]; 293.15 K) | speed of sound ([2]; 303.15 K) | mass density ([2]; 303.15 K) | speed of sound ([2]; 313.15 K) | mass density ([2]; 313.15 K) | speed of sound ([2]; 323.15 K) | mass density ([2]; 323.15 K)
1 | CC(=O)[O-].OCC[NH2+]CCO [2,2'-azanediylbis(ethanol) acetate] | 1884.7 ± 20 m/s | 1180 ± 6 kg/m3 | 1828.2 ± 20 m/s | 1173 ± 6 kg/m3 | 1788.6 ± 20 m/s | 1167 ± 6 kg/m3 | 1756 ± 20 m/s | 1160 ± 6 kg/m3 |  |  |  |  |  |  |  | 
2 | CC(=O)[O-].[NH3+]CCO [2-hydroxyethylammonium acetate] | 1812.9 ± 20 m/s | 1150 ± 6 kg/m3 | 1781.2 ± 20 m/s | 1144 ± 6 kg/m3 | 1754.7 ± 20 m/s | 1139 ± 6 kg/m3 | 1730.9 ± 20 m/s | 1133 ± 6 kg/m3 and 1132 ± 6 kg/m3 |  |  |  |  |  |  |  | 
3 | CCCO [propan-1-ol] | 1223.4 ± 20 m/s | 803.6 ± 6 kg/m3 | 1189.4 ± 20 m/s | 795.7 ± 6 kg/m3 | 1155.5 ± 20 m/s | 787.5 ± 6 kg/m3 | 1122 ± 20 m/s | 779.2 ± 6 kg/m3 |  |  |  |  |  |  |  | 
4 | CCCO [propan-1-ol] + CC(=O)[O-].OCC[NH2+]CCO |  |  |  |  |  |  |  |  | 1223.4 ± 20 m/s | 803.6 ± 6 kg/m3 | 1189.4 ± 20 m/s | 795.7 ± 6 kg/m3 | 1155.5 ± 20 m/s | 787.5 ± 6 kg/m3 | 1122 ± 20 m/s | 779.2 ± 6 kg/m3
5 | CCCO [propan-1-ol] + CC(=O)[O-].[NH3+]CCO |  |  |  |  |  |  |  |  | 1223.4 ± 20 m/s | 803.6 ± 6 kg/m3 | 1189.4 ± 20 m/s | 795.7 ± 6 kg/m3 | 1155.5 ± 20 m/s | 787.5 ± 6 kg/m3 | 1122 ± 20 m/s | 779.2 ± 6 kg/m3
6 | CC(C)O [propan-2-ol] | 1174.3 ± 20 m/s | 791.5 ± 6 kg/m3 | 1122.4 ± 20 m/s | 777 ± 6 kg/m3 | 1087.4 ± 20 m/s | 768.2 ± 6 kg/m3 | 1051.6 ± 20 m/s | 759 ± 6 kg/m3 |  |  |  |  |  |  |  | 
7 | CC(C)O [propan-2-ol] + CC(=O)[O-].OCC[NH2+]CCO |  |  |  |  |  |  |  |  | 1174.3 ± 20 m/s | 791.5 ± 6 kg/m3 | 1122.4 ± 20 m/s | 777 ± 6 kg/m3 | 1087.4 ± 20 m/s | 768.2 ± 6 kg/m3 | 1051.6 ± 20 m/s | 759 ± 6 kg/m3
8 | CC(C)O [propan-2-ol] + CC(=O)[O-].[NH3+]CCO |  |  |  |  |  |  |  |  | 1174.3 ± 20 m/s | 791.5 ± 6 kg/m3 | 1122.4 ± 20 m/s | 777 ± 6 kg/m3 | 1087.4 ± 20 m/s | 768.2 ± 6 kg/m3 | 1051.6 ± 20 m/s | 759 ± 6 kg/m3
